Earlier results on one compound are cited in paper PMC12472947 (Pharmaceuticals, 2025).

The test system of this series is SH-SY5Y neuroblastoma cells. The settings on record: 50 μM, ref [28],[29]; cited from earlier work.

What is called cell viability is the share of living cells, or the viability signal relative to a control. On to `Nc1c2c(nc3ccccc13)CCCC2` [tacrine], for which the cell viability is reported as 97%.
